Where “and” joins values, the source holds several entries; their conditions need not be identical. Equal values may be shown once.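 Five compound concentrations were applied to cells in 96-well plates for 48 hours; endpoints were derived by simple linear interpolation of the resulting dose-response curve. The concentration for 50% growth inhibition is given as GI50.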 Calls of active or inactive are those of the source. Rule as the data show it: active = GI50 up to about 1.1 µM and inactive = higher.
What was measured:
Experiment in all cases: DTP human tumour cell line panel, 48 h
[1] = test system: A549
[2] = test system: NCI-H522
[3] = test system: UACC-62
[4] = test system: T47D
[5] = test system: MCF7
[6] = test system: OVCAR-5
[7] = test system: U-251
[8] = test system: PC-3
[9] = test system: SK-OV-3
[10] = test system: MDA-MB-231
[11] = test system: M14
[12] = test system: A498
[13] = test system: HOP-62
[14] = test system: BT-549
[15] = test system: TK-10
[16] = test system: SNB-75
[17] = test system: IGROV-1
[18] = test system: DU-145
[19] = test system: RXF 393
[20] = test system: LOX IMVI

Measured: GI50

CCN(CC)CCCC(C)Nc1ccnc2cc3ccccc3cc12 (stereo not given)
inactive: [1] 7.03 µM | [2] 10.4 µM | [3] 17.2 µM | [4] 12.8 µM | [5] 5.35 µM | [6] 21.7 µM | [7] 5.75 µM | [8] 12.9 µM | [9] 8.05 µM | [10] 8.57 µM | [11] 14.6 µM | [12] 22.6 µM | [13] 12.4 µM | [14] 8.59 µM | [15] 10.2 µM | [16] 6.95 µM | [17] 4.43 µM | [18] > 100 µM | [19] 9.53 µM | [20] 4.91 µM

Cc1ccc(S(=O)(=O)Nc2cc(O)nc3c2CCC3)cc1
inactive: [1] > 100 µM | [2] > 100 µM | [3] > 100 µM | [4] > 100 µM | [5] > 100 µM | [6] > 100 µM | [7] > 100 µM | [8] > 100 µM | [9] > 100 µM | [10] > 100 µM | [11] > 100 µM | [12] > 100 µM | [13] > 100 µM | [14] > 100 µM | [15] > 100 µM | [16] > 100 µM | [17] > 100 µM | [18] > 100 µM | [19] > 100 µM | [20] > 100 µM

Nc1cccc2nsnc12
inactive: [1] > 100 µM | [2] 9.1 µM | [3] 48.6 µM | [4] 49.1 µM | [5] > 88.3 µM | [6] > 100 µM | [7] > 100 µM | [8] > 100 µM | [9] > 100 µM | [10] > 100 µM | [11] > 83.9 µM | [12] > 100 µM | [13] > 100 µM | [14] > 100 µM | [15] > 100 µM | [16] 53.8 µM | [17] > 100 µM | [18] > 100 µM | [19] > 100 µM | [20] > 53.1 µM

COc1ccc(/C=C/C(=O)c2cc(C(C)(C)C)c(O)c(C(C)(C)C)c2)cc1OC
inactive: [1] 8.59 µM | [2] 5.61 µM | [3] 10 µM | [4] 3.29 µM | [5] 4.29 µM | [6] 25.2 µM | [7] 5.79 µM | [8] 3.66 µM | [9] 18.7 µM | [10] 6.4 µM | [11] 25.3 µM | [12] 15 µM | [13] 23 µM | [14] 5.24 µM | [15] 6.82 µM | [16] 3.01 µM | [17] 17.7 µM | [18] 10 µM | [19] 2.86 µM | [20] 8.75 µM

CCN(C(C)=O)c1cnc(/C=N/NC(N)=S)c2ccccc12
inactive: [1] 4.01 µM | [2] 2.95 µM | [3] 3.3 µM | [4] 5.69 µM | [5] 2.81 µM | [6] > 20 µM | [7] 3.85 µM | [8] 4.15 µM | [9] 3.65 µM | [10] 18.6 µM | [11] 2.58 µM | [12] 19.8 µM | [13] 5.61 µM | [14] 5 µM | [15] 4.59 µM | [16] 18.7 µM | [17] 2.76 µM | [18] 2.06 µM | [19] 17.9 µM | [20] 1.38 µM

CC(C)(C)c1cc(C2NC(=O)NC2=O)cc(C(C)(C)C)c1O (stereo not given)
inactive: [1] 96.8 µM | [2] 32.8 µM | [3] 45.1 µM | [4] 46 µM | [5] 24.7 µM | [6] > 100 µM | [7] 39.5 µM | [8] 71.9 µM | [9] > 100 µM | [10] 35.6 µM | [11] > 100 µM | [12] > 100 µM | [13] > 100 µM | [14] > 100 µM | [15] 29 µM | [16] 29.4 µM | [17] > 100 µM | [18] > 100 µM | [19] 33.3 µM | [20] > 100 µM

CNNC1=NS(=O)(=O)c2cc(C#N)c(Cl)cc2S1
inactive: [1] > 10 µM | [2] > 10 µM | [3] > 10 µM | [4] > 10 µM | [6] > 10 µM | [7] > 10 µM | [8] > 10 µM | [9] > 10 µM | [10] > 10 µM | [11] > 10 µM | [12] > 10 µM | [13] > 10 µM | [14] > 10 µM | [15] > 10 µM | [16] > 10 µM | [17] > 10 µM | [18] > 10 µM | [19] > 10 µM | [20] > 10 µM
active: [5] 0.00303 µM

O=c1[nH]c(=O)n(C2CC(O)C(CO)O2)c2nc3ccc4ccccc4c3nc12 (stereo not given)
inactive: [1] > 100 µM | [2] 45.6 µM | [3] 56.9 µM | [4] 93.8 µM | [5] 46.3 µM | [6] > 100 µM | [7] 33.7 µM | [8] 73.8 µM | [9] > 100 µM | [10] 26.9 µM | [11] > 100 µM | [12] > 100 µM | [13] 32.4 µM | [14] 66.4 µM | [15] > 100 µM | [16] 52.8 µM | [17] 47.4 µM | [18] > 100 µM | [19] 56.6 µM | [20] 35.4 µM

O=C(O)C(SC1=NC(=O)C2(NN1)c1ccccc1-c1ccccc12)SC1=NC(=O)C2(NN1)c1ccccc1-c1ccccc12
inactive: [1] > 10 µM | [2] > 10 µM | [3] > 10 µM | [4] 6.89 µM | [5] 8.67 µM | [6] > 10 µM | [7] > 10 µM | [8] > 10 µM | [9] > 10 µM | [10] > 10 µM | [11] > 10 µM | [12] > 10 µM | [13] > 10 µM | [14] > 10 µM | [15] > 10 µM | [16] 2.74 µM | [17] > 10 µM | [18] > 10 µM | [19] > 10 µM | [20] 9.02 µM

O=C(/C=C/c1ccc(O)c(O)c1)NC(CO)C(=O)O (stereo not given)
active: [17] 0.612 µM
inactive: [1] > 100 µM | [2] > 100 µM | [3] > 100 µM | [4] > 100 µM | [5] > 100 µM | [6] > 100 µM | [7] > 100 µM | [8] > 100 µM | [9] > 100 µM | [10] > 100 µM | [11] > 100 µM | [12] > 100 µM | [13] > 100 µM | [14] > 100 µM | [15] > 100 µM | [16] > 100 µM | [18] > 100 µM | [19] > 100 µM | [20] > 100 µM

Cc1cn(C2CCC(CO)(CF)O2)c(=O)[nH]c1=O (stereo not given)
inactive: [1] > 100 µM | [2] > 100 µM | [3] > 100 µM | [4] > 100 µM | [5] > 100 µM | [6] > 100 µM | [7] > 100 µM | [8] > 100 µM | [9] > 100 µM | [10] > 100 µM | [11] > 100 µM | [12] > 100 µM | [13] > 100 µM | [14] > 100 µM | [15] > 100 µM | [16] > 100 µM and 96.6 µM | [17] > 100 µM | [18] > 100 µM | [19] > 100 µM | [20] > 100 µM

CSC1(C(=O)O)C2CCC3C2CCC31 (stereo not given)
inactive: [1] > 100 µM | [2] > 100 µM | [3] > 100 µM | [4] > 100 µM | [5] > 100 µM | [6] > 100 µM | [7] > 100 µM | [8] > 100 µM | [9] > 100 µM | [10] > 100 µM | [11] > 100 µM | [12] > 100 µM | [13] > 100 µM | [14] > 100 µM | [15] > 100 µM | [16] > 100 µM | [17] > 100 µM | [18] > 100 µM | [19] > 100 µM | [20] > 100 µM

CCOP(=O)(OCC)/C(C#N)=C/c1c(C)[nH]c2ccccc12
inactive: [1] > 100 µM | [2] > 100 µM | [3] > 100 µM | [4] > 100 µM | [5] > 100 µM | [6] > 100 µM | [7] > 100 µM | [8] > 100 µM | [9] > 100 µM | [10] > 100 µM | [11] > 100 µM | [12] > 100 µM | [13] > 100 µM | [14] > 100 µM | [15] > 100 µM | [16] > 100 µM | [17] > 100 µM | [18] > 100 µM | [19] > 100 µM | [20] > 100 µM

COc1cccc(/C=C\c2ccc(O)cc2)c1
inactive: [1] 16.9 µM | [2] 7.06 µM | [3] 10.2 µM | [4] 18.7 µM | [5] 26.1 µM | [6] 62.8 µM | [7] 11.2 µM | [8] 11.7 µM | [9] 36.5 µM | [10] 30.1 µM | [11] 17.5 µM | [12] 28.3 µM | [13] 34.6 µM | [14] 17.5 µM | [15] 52.4 µM | [16] 24 µM | [17] 26.7 µM | [18] 13.1 µM | [19] 19.5 µM | [20] 14.9 µM

— ChEMBL document CHEMBL1201862, “PubChem BioAssay data set” (2004)
